The term IC50 denotes the point on the concentration scale where inhibition reaches its midpoint.

From patent US20260137706A1, “METHODS OF TREATING INFLAMMATORY DISEASES” (INTERLINE THERAPEUTICS, INC., priority 2023, published 2026) come the findings set out here.

Assay [1] deals with T1, GST-RIPK2 fusion protein (human RIPK2, amino acids 1-310) (Homo sapiens, UniProt O43353).
T1 construct: made in house; host or cells: baculovirus infected Sf9 cells
The assay can be described thus: RIPK2 binding competition assay (TR-FRET, Tracer 199 displacement). As to conditions: 10 nM Tracer 199, 1 nM GST-RIPK2, read-out: RIPK2 IC50. The method, boiled down:
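IC50 derived from the TR-FRET emission ratio (665/620 nm, 337 nm excitation), normalized with no-inhibitor and no-enzyme controls. Incubation 45 min at 22 °C, pH 7.5 Tris buffer, with final 10 nM tracer, 1 nM Sf9-expressed GST-RIPK2 fragment (aa 1-310) and 0.5 nM Tb-labelled anti-GST.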
(TR-FRET usually uses a lanthanide donor and a delayed reading to cut background.)

Assay [2] concerns the target T2, binding of His-XIAP(BIR2)-avi fusion protein to GST-RIPK2 fusion protein (RIPK2/XIAP) (Homo sapiens, UniProt O43353).
T2 construct: made in house; host or cells: baculovirus infected Sf9 cells
The experiment in a line: RIPK2-XIAP binding competition PPI assay (TR-FRET). As to conditions: RIPK2/XIAP binding competition PPI assay; for Emax: Amax, read-out: PPI Amax bin; for IC50: read-out: PPI IC50 bin. The method, boiled down:
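Compounds (in DMSO, 100-fold stock) incubated 120 min at 23 °C with 1 nM GST-RIPK2 (aa 1-310) and 25 nM His-XIAP(BIR2 aa 152-231)-avi, plus anti-His-XL665 and anti-GST-Tb, in pH 7.5 Tris buffer. Read-out: 665/520 nm emission ratio. Normalized to no-inhibitor (0%) and 50 nM GSK583 (−100%); Amax binned A–D.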

The subject of assay [3] is NF-κB pathway (SEAP) in THP1-Dual cells. The assay can be described thus: THP-1 Dual cell SEAP assay (L18-MDP stimulated). It is filed as cell-based. As to conditions: Homo sapiens, THP1-Dual, read-out: NF-κB THP1 IC50 bin. The method, boiled down:
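IC50 values derive from non-linear regression of % inhibition, calculated against DMSO/L18-MDP-treated wells after media-only subtraction. NF-κB SEAP activity was read at OD 620-655 nm (QUANTI-Blue, 2 h, 37 °C) from supernatants of THP1-Dual cells. Cells had been compound-treated 30 min before overnight (20-24 h) stimulation with 10 ng/mL final L18-MDP.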

T2 sequence (O43353 1-310 limits assumed): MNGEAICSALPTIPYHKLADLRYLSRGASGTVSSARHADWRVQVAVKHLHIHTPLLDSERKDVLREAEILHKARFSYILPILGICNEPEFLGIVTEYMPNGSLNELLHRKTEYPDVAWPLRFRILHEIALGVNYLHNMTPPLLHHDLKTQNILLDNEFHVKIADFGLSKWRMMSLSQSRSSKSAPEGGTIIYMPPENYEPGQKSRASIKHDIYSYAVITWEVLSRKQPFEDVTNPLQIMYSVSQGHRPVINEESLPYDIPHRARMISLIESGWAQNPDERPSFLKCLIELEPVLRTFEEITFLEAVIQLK
T1 sequence (O43353 1-310): as the sequence (O43353 1-310 limits assumed) above

As for `COc1c(F)cc(-c2cnc3cc(OCCO)c(S(=O)(=O)C(C)(C)C)cn23)cc1NS(=O)(=O)c1cnn(C)c1` [Example 225, N-(5-(6-(tert-butylsulfonyl)-7-(2-hydroxyethoxy)imidazo[1,2-a]pyridin-3-yl)-3-fluoro-2-methoxyphenyl)-1-methyl-1H-pyrazole-4-sulfonamide], the IC50 was less than 1 nM in assay [1], less than 1 nM in assay [2] and less than 50 nM in assay [3]. Also, the Emax in assay [2] was greater than 80%.
On to `COc1c(F)cc(-c2cnn3cc(OCCO)c(S(=O)(=O)C(C)(C)C)cc23)cc1NS(=O)(=O)c1cnn(C)c1` [Example 226, N-(5-(5-(tert-butylsulfonyl)-6-(2-hydroxyethoxy)pyrazolo [1,5-a]pyridin-3-yl)-3-fluoro-2-methoxyphenyl)-1-methyl-1H-pyrazole-4-sulfonamide], for which the half-maximal inhibitory concentration (IC50) was less than 1 nM in assay [1], less than 1 nM in assay [2] and less than 50 nM in assay [3]. Moreover, the Emax in assay [2] was greater than 80%.
`COc1cc2ncc(-c3cc(F)c(OC)c(NS(=O)(=O)c4cnn(CCO)c4)c3)n2cc1S(=O)(=O)C(C)(C)C` [Example 227, N-(5-(6-(tert-butylsulfonyl)-7-methoxyimidazo[1,2-a]pyridin-3-yl)-3-fluoro-2-methoxyphenyl)-1-(2-hydroxyethyl)-1H-pyrazole-4-sulfonamide]: the IC50 in assay [1] was 1 to 2.5 nM; in assay [2], less than 1 nM; in assay [3], less than 50 nM. For the same compound, the Emax in assay [2] is greater than 80%.
For `C[C@H](CO)COc1cc2ncc(-c3cc4cc[nH]c4nc3F)n2cc1S(=O)(=O)C(C)(C)C` [Example 228, (R)-3-((6-(tert-butylsulfonyl)-3-(6-fluoro-1H-pyrrolo[2,3-b]pyridin-5-yl)imidazo[1,2-a]pyridin-7-yl)oxy)-2-methylpropan-1-ol] the same measures were less than 1 nM, less than 1 nM, less than 50 nM and greater than 80%.
On the same counts, the results for `CC(C)(C)S(=O)(=O)c1cn2c(-c3cnc4[nH]cnc4c3)cnc2cc1OCCO` [Example 229, 2-((6-(tert-butylsulfonyl)-3-(3H-imidazo[4,5-b]pyridin-6-yl)imidazo[1,2-a]pyridin-7-yl)oxy)ethan-1-ol] are greater than 20 nM, greater than 20 nM, greater than 1000 nM and less than 30%.
For `CC1(C)CNc2ncc(-c3cnc4cc(OCCO)c(S(=O)(=O)C(C)(C)C)cn34)cc21` [Example 230, 2-((6-(tert-butylsulfonyl)-3-(3,3-dimethyl-2,3-dihydro-1H-pyrrolo[2,3-b]pyridin-5-yl)imidazo[1,2-a]pyridin-7-yl)oxy)ethan-1-ol] the same measures were greater than 20 nM, greater than 20 nM, greater than 1000 nM and less than 30%.
As to `CC(C)(C)S(=O)(=O)c1cn2c(-c3cnc4[nH]nnc4c3)cnc2cc1OCCO` [Example 231, 2-((3-(3H-[1,2,3]triazolo[4,5-b]pyridin-6-yl)-6-(tert-butylsulfonyl)imidazo [1,2-a]pyridin-7-yl)oxy)ethan-1-ol], the values for the half-inhibitory concentration (IC50) in assay [1], in assay [2] and in assay [3] were greater than 20 nM, greater than 20 nM and greater than 1000 nM, respectively. For the same compound, in assay [2], the Emax lay within 30 to 55%.
Consider `Cc1cc2cc(-c3cnc4cc(OCCO)c(S(=O)(=O)C(C)(C)C)cn34)cnc2[nH]1` [Example 232, 2-((6-(tert-butylsulfonyl)-3-(2-methyl-1H-pyrrolo[2,3-b]pyridin-5-yl)imidazo[1,2-a]pyridin-7-yl)oxy)ethan-1-ol], for which the concentration for half-maximal inhibition (IC50) in assay [1] was 2.5 to 20 nM; in assay [2], less than 1 nM; in assay [3] it was greater than 1000 nM. Also, the Emax in assay [2] lay in the range of 30 to 55%.
On the same counts, the results for `CC(C)(C)S(=O)(=O)c1cn2c(-c3cnc4[nH]c(Cl)cc4c3)cnc2cc1OCCO` [Example 233, 2-((6-(tert-butylsulfonyl)-3-(2-chloro-1H-pyrrolo[2,3-b]pyridin-5-yl)imidazo[1,2-a]pyridin-7-yl)oxy)ethan-1-ol] are 2.5 to 20 nM, greater than 20 nM, greater than 1000 nM and less than 30%.
For `COc1cc2ncc(-c3cc(F)c(OC)c(NS(=O)(=O)c4cnn(C)c4)c3)n2cc1C1(F)CCN(C)CC1` [Example 234, N-(3-fluoro-5-(6-(4-fluoro-1-methylpiperidin-4-yl)-7-methoxyimidazo[1,2-a]pyridin-3-yl)-2-methoxyphenyl)-1-methyl-1H-pyrazole-4-sulfonamide] the same measures were less than 1 nM, less than 1 nM, less than 50 nM and greater than 80%.
For `CC(C)(C)S(=O)(=O)c1cn2c(-c3cnc4nccn4c3)cnc2cc1OCCO` [Example 235, 2-((6-(tert-butylsulfonyl)-3-(imidazo[1,2-a]pyrimidin-6-yl)imidazo[1,2-a]pyridin-7-yl)oxy)ethan-1-ol] the same measures were greater than 20 nM, greater than 20 nM, greater than 1000 nM and less than 30%.
For `CC(C)(C)S(=O)(=O)c1cn2c(-c3cc4c(F)c[nH]c4nc3F)cnc2cc1OCCO` [Example 236, 2-((6-(tert-butylsulfonyl)-3-(3,6-difluoro-1H-pyrrolo[2,3-b]pyridin-5-yl)imidazo[1,2-a]pyridin-7-yl)oxy)ethan-1-ol], the concentration for half-maximal inhibition (IC50) was less than 1 nM in assay [1], less than 1 nM in assay [2] and less than 50 nM in assay [3]. Further, the Emax in assay [2] is greater than 80%.
Consider `CC(C)(C)S(=O)(=O)c1cn2c(-c3cnc4c(c3)C3(CC3)CN4)cnc2cc1OCCO` [Example 237, 2-((6-(tert-butylsulfonyl)-3-(1′,2′-dihydrospiro [cyclopropane-1,3′-pyrrolo[2,3-b]pyridin] -5′-yl)imidazo[1,2-a]pyridin-7-yl)oxy)ethan-1-ol], for which the IC50 in assay [1] is greater than 20 nM; in assay [2], greater than 20 nM; in assay [3], greater than 1000 nM. For the same compound, the Emax in assay [2] was less than 30%.
With `CCOc1cc2ncc(-c3cc4cc[nH]c4nc3F)n2cc1S(=O)(=O)C(C)C` [Example 238, 7-ethoxy-3-(6-fluoro-1H-pyrrolo[2,3-b]pyridin-5-yl)-6-(isopropylsulfonyl) imidazo[1,2-a]pyridine], the values for the IC50 in assay [1], in assay [2] and in assay [3] were 1 to 2.5 nM, 1 to 2.5 nM and 50 to 250 nM, respectively. Moreover, the Emax in assay [2] was greater than 80%.
For `CC(N)COc1cc2ncc(-c3cc(Cl)c(N)nc3F)n2cc1S(=O)(=O)C(C)(C)C` (stereo not shown) [Example 239, 5-(7-(2-aminopropoxy)-6-(tert-butylsulfonyl)imidazo [1,2-a]pyridin-3-yl)-3-chloro-6-fluoropyridin-2-amine], the IC50 lay in the range of 2.5 to 20 nM in assay [1], 2.5 to 20 nM in assay [2] and 250 to 1000 nM in assay [3]. The Emax in assay [2] was greater than 80%.
For `CC(C)(O)COc1cc2ncc(-c3cc(Cl)c(N)nc3F)n2cc1S(=O)(=O)C(C)(C)C` [Example 240, 1-((3-(6-amino-5-chloro-2-fluoropyridin-3-yl)-6-(tert-butylsulfonyl)imidazo [1,2-a]pyridin-7-yl)oxy)-2-methylpropan-2-ol], the IC50 in assay [1] lay in the range of 1 to 2.5 nM; in assay [2] it was 1 to 2.5 nM; in assay [3], 50 to 250 nM. Moreover, in assay [2], the Emax was greater than 80%.
As to `CC(C)(N)COc1cc2ncc(-c3cc(Cl)c(N)nc3F)n2cc1S(=O)(=O)C(C)(C)C` [Example 241, 5-(7-(2-amino-2-methylpropoxy)-6-(tert-butylsulfonyl)imidazo [1,2-a]pyridin-3-yl)-3-chloro-6-fluoropyridin-2-amine], the IC50 in assay [1] was in the range of 2.5 to 20 nM; in assay [2] it was 2.5 to 20 nM; in assay [3] it was 250 to 1000 nM. The Emax in assay [2] was greater than 80%.
As to `CCS(=O)(=O)c1cn2c(-c3cc(F)c(OC)c(NS(=O)(=O)c4cnn(C)c4)c3)cnc2cc1OC` [Example 242, N-(5-(6-(ethylsulfonyl)-7-methoxyimidazo[1,2-a]pyridin-3-yl)-3-fluoro-2-methoxyphenyl)-1-methyl-1H-pyrazole-4-sulfonamide], the half-maximal inhibitory concentration (IC50) was less than 1 nM in assay [1], less than 1 nM in assay [2] and 50 to 250 nM in assay [3]. Further, in assay [2], the Emax is greater than 80%.
Turning to `CC(C)(C)S(=O)(=O)c1cn2c(-c3cc(Cl)c(N)nc3F)cnc2cc1OCC(F)(F)CN` [Example 243, 5-(7-(3-amino-2,2-difluoropropoxy)-6-(tert-butylsulfonyl)imidazo [1,2-a]pyridin-3-yl)-3-chloro-6-fluoropyridin-2-amine], the IC50 is 1 to 2.5 nM in assay [1], 1 to 2.5 nM in assay [2] and 50 to 250 nM in assay [3]. The Emax in assay [2] was greater than 80%.
